Biological target: T1, OATP1B3 (Homo sapiens, UniProt Q9NPD5)
T1 construct: expressed in transfected cells; host or cells: HEK293 (recombinant baculovirus-mediated transduction)
T1 sequence (Q9NPD5 1-702): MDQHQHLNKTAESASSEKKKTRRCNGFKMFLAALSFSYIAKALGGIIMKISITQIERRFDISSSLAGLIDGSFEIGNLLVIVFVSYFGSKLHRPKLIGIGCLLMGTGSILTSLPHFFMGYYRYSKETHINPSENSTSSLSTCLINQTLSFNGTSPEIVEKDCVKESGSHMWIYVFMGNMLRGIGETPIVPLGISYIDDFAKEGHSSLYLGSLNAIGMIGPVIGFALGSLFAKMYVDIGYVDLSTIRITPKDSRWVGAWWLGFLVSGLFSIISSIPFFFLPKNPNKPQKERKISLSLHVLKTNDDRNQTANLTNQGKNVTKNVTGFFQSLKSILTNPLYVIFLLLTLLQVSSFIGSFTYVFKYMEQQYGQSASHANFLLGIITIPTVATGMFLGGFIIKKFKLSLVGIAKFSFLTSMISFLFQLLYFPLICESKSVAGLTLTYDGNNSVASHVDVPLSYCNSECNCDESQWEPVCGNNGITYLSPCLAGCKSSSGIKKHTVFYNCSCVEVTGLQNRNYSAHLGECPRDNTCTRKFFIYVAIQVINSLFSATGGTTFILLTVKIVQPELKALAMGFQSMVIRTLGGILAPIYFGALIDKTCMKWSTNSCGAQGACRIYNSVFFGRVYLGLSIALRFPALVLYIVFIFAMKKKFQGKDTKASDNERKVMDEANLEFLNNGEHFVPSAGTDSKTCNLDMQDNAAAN
Test: Uptake transport assay in OATP1B3-expressing HEK293 cells
Format: cell-based
Settings: for transport by OATP1B3: 2 and 50 μM, 10 min; for Km at 2 min: human, HEK293 cells transiently expressing OATP1B3, pH 7.4, uptake; for Km / Vmax (pmol/106 cells/min) OATP1B3: uptake; for Km at 2 min / Km / Vmax (pmol/106 cells/min) OATP1B3: 2 min
Method: The human transporters OATP1B1, OATP1B3, OATP2B1, and OAT1‐OAT4 and a negative control protein (enhanced yellow fluorescent protein, eYFP) were transiently expressed in human embryonic kidney 293 (HEK293) cells by recombinant baculovirus‐mediated transduction. Baculoviruses carrying human genes for the transporters were prepared as reported previously. HEK293 cells were cultured in DMEM containing 10% fetal bovine serum at 37°C and 5% CO2 and passaged two to three times per week. For the transport studies, 0.05 × 10^6 cells for 48‐well plates (OATPs) or 0.06 × 10^6 cells for 24‐well plates (OATs) were seeded onto cell‐culture treated well plates coated with poly‐D‐lysine. After 1 day, cells were transduced to produce recombinant proteins by changing media to DMEM containing 30 μL (48‐well plates) or 60 μL (24‐well plates) of recombinant baculovirus and 3 mM (OATs) or 5 mM (OATPs) sodium butyrate in a total media volume of 500 μL. The cells were cultured for a further 2 days before the transport assays.
For the transport studies, media were removed and cells were washed once with warm transport uptake buffer (TP‐buffer—pH 7.4 HBSS with 25 mM HEPES and 4 mM sodium bicarbonate). Each experiment included triplicate (OATP) or duplicate (OAT) samples for every test condition. The uptake was started by removing liquid from wells and applying warm TP‐buffer (200 μL for 24‐well plates or 125 μL for 48‐well plates) containing a test compound to cells. Transport assays were terminated after a pre‐specified incubation time (reported in figure legends) by removing substrate solution and washing cells three times with cold TP‐buffer (300 μL for 48‐well plates and 400 μL for 24‐well plates). For the liquid chromatography mass spectrometry (LC–MS) analysis, compounds were extracted from cells with 125 μL (48‐well plates) or 250 μL (24‐well plates) of an ultrapure‐water solution containing 75% methanol and 0.1% formic acid, shaking at 250 RPM for 30 min. […] Samples were transferred to well plates, centrifuged at 3000 g for 30 min, and transferred to a new well plate for the analysis.
Equation (2) (the Michaelis–Menten equation) was fit to the transport kinetic assay data. […] (2) Uptake=Vmax×S/Km+S

transport by OATP1B3 | Km at 2 min [µM] | Km [µM] | Vmax (pmol/106 cells/min) OATP1B3 [pmol/106 cells/min] | SMILES
transported | 2.81 | 3 | 2.69 | Cc1onc(-c2c(Cl)cccc2Cl)c1C(=O)N[C@@H]1C(=O)N2[C@@H]1SC(C)(C)[C@@H]2C(=O)O [Dicloxacillin]
transported | 18.3 | 10 to 18 | 6.02 | Cc1onc(-c2c(F)cccc2Cl)c1C(=O)N[C@@H]1C(=O)N2[C@@H]1SC(C)(C)[C@@H]2C(=O)O [Flucloxacillin]

— publication PMC12865225 (Clinical and Translational Science, 2026)
